Our source for the IC50 values is US11926614B2, “1,2,4-triazole derivatives as tankyrase inhibitors” (priority 2018, dated 2024).

Each structure is given as a SMILES string.

The target in one test is TNKS2 (Homo sapiens (Human), UniProt Q9H2K2). The test can be described thus: Biochemical IC50 TNKS2. The note with it: read-out: Biochemical IC50 TNKS2. The text has this:
(§1) XLfit (idbs) was used to determine the IC50-values in inhibition experiments. The following formula was chosen to fit the data points (Langmuir Binding Isotherm): fit=((A+(B*x))+4(C−B)*(1−exp((−1*D)*x)))/D)), res=(y−fit)

The test system of a further test is HEK293. The test can be described thus: Cellular IC50 HEK293. The class given is cell-based. The note with it: Homo sapiens, HEK293, HEK293; read-out: Cellular IC50 HEK293.
Description: as §1

Sequence of TNKS2 (Q9H2K2 whole entry): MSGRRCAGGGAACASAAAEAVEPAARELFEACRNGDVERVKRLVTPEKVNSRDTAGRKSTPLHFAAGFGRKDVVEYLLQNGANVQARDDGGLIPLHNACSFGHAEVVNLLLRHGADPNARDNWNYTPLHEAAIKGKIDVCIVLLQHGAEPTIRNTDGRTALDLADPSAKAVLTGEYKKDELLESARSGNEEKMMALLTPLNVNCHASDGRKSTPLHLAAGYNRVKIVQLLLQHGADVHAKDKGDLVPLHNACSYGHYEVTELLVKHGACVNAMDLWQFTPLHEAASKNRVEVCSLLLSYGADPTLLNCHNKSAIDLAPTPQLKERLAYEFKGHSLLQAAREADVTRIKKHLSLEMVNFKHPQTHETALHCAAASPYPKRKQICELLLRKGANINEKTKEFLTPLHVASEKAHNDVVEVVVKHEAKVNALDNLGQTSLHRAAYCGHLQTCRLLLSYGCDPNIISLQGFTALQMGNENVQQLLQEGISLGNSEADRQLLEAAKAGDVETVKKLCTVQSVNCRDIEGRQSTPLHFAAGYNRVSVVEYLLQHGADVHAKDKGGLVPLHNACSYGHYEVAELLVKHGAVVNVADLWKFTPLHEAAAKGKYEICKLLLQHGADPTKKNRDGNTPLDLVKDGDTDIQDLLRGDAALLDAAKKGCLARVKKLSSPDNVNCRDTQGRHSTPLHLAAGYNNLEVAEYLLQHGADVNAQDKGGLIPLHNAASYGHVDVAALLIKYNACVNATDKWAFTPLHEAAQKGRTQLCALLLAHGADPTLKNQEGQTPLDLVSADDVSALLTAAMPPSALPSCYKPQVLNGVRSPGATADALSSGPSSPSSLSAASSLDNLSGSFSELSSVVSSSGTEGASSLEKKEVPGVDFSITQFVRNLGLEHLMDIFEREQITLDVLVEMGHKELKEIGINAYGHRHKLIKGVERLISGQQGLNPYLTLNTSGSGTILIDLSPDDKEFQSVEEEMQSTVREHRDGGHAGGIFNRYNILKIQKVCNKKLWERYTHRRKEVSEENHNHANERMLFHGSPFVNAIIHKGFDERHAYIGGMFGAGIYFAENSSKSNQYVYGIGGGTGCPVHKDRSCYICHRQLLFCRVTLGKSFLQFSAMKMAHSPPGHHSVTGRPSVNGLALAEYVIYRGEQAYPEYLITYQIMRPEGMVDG

`CCOc1ccc(-c2nnc([C@H]3C[C@H](NC(=O)c4cc(C)nc5ncnn45)C3)n2-c2ccccc2F)nc1` [Example 158, N-((1S,3r)-3-(5-(5-ethoxypyridin-2-yl)-4-(2-fluorophenyl)-4H-1,2,4-triazol-3-yl)cyclobutyl)-5-methy-[1,2,4]triazolo[1,5-a]pyrimidine-7-carboxamide]: the IC50 at TNKS2 was 26 nM; in the test with HEK293, 44 nM.

For `CCOc1ccc(-c2nnc([C@H]3C[C@H](NC(=O)c4cccc(C(C)O)n4)C3)n2-c2ccccc2F)nc1` (stereo partly drawn) [Example 128, N-((1R,3r)-3-(5-(5-ethoxypyridin-2-yl)-4-(2-fluorophenyl)-4H-1,2,4-triazol-3-yl)cyclobutyl)-6-(1-hydroxyethyl)picolinamide], the results for the IC50 at TNKS2 and with HEK293 were 37 nM and 230 nM, respectively.

In the case of `CCOc1ccc(-c2nnc([C@H]3C[C@H](NC(=O)c4cccc5cn[nH]c45)C3)n2-c2ccccc2F)nc1` [Example 156, N-((1S,3r)-3-(5-(5-ethoxypyridin-2-yl)-4-(2-fluorophenyl)-4H-1,2,4-triazol-3-yl)cyclobutyl)-1H-indazole-7-carboxamide], the results for the 50% inhibitory concentration (IC50) on TNKS2 and with HEK293 were 21 nM and 67 nM, respectively.
